The text below walks through data of PMC10967822, “Antimicrobial Indole-3-Carboxamido-Polyamine Conjugates Target Bacterial Membranes and Are Antibiotic Potentiators” (Biomolecules, 2024).

Values after ≈ are worked out from the molar mass of the structure shown. Where only a bound is given, the exact number is not on record here.

One data set deals with C. albicans ATCC 90028. Put plainly: Antifungal MIC (CO-ADD), C. albicans. The class given is cell-based. The settings on record: Candida albicans, ATCC90028, top dose 32 µg/mL. The procedure, abridged:
(§1)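 MIC for C. neoformans determined by OD570–600 following a further 3 h with resazurin (0.006% final), whereas C. albicans was read directly at OD530. Both grown static in YNB broth at 2.5 × 10^3 CFU/mL final inoculum, 35 °C for 36 h, from colonies cultured on YPD agar 3 days at 30 °C.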
Take `Cc1cccc2c(C(=O)NCCCNCCCCCCCCNCCCNC(=O)c3c[nH]c4c(C)cccc34)c[nH]c12` [Compound 18d]: the MIC (usually the lowest concentration that inhibits growth of the organism) was more than 40 µM.

Take `Cc1cccc2c(C(=O)NCCCNCCCCCCCCCCNCCCNC(=O)c3c[nH]c4c(C)cccc34)c[nH]c12` [Compound 18e]: the MIC was found to be 4.83 µM (≈ 2.9 µg/mL).

Take `Cc1cccc2c(C(=O)NCCCNCCCCCCCCCCCCNCCCNC(=O)c3c[nH]c4c(C)cccc34)c[nH]c12.O=C(O)C(F)(F)F.O=C(O)C(F)(F)F` [Compound 18f]: the MIC is not above 0.29 µM.

A further data set concerns human red blood cells. Put plainly: Hemolytic assay. The settings on record: 10% hemolytic activity, mean n = 2. The class given is cell-based. The procedure, abridged:
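Compounds were applied to saline-washed human red blood cells at 0.5 × 10^8 cells/mL, 37 °C, 1 h. Lysis was measured by supernatant absorbance at 405 nm, and concentrations giving 10% and 50% haemolysis were obtained by variable-slope curve fitting.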
`Cc1cccc2c(C(=O)NCCCNCCCCCCCCNCCCNC(=O)c3c[nH]c4c(C)cccc34)c[nH]c12` [Compound 18d]: the “Hemolysis HC10” value is on record as more than 40 µM.

As for `Cc1cccc2c(C(=O)NCCCNCCCCCCCCCCNCCCNC(=O)c3c[nH]c4c(C)cccc34)c[nH]c12` [Compound 18e], the “Hemolysis HC10” value was more than 39 µM.

In the case of `Cc1cccc2c(C(=O)NCCCNCCCCCCCCCCCCNCCCNC(=O)c3c[nH]c4c(C)cccc34)c[nH]c12.O=C(O)C(F)(F)F.O=C(O)C(F)(F)F` [Compound 18f], the “Hemolysis HC10” value is listed as more than 37 µM.

The test system of a further data set is K. pneumoniae ATCC 700603. Put plainly: MIC, broth microdilution (CO-ADD), K. pneumoniae. Conditions: top dose 32 µg/mL. In general terms: In broth dilution the organism is exposed to a series of concentrations in liquid medium.
Consider `Cc1cccc2c(C(=O)NCCCNCCCCCCCCNCCCNC(=O)c3c[nH]c4c(C)cccc34)c[nH]c12` [Compound 18d], for which the “MIC Kp” value is reported as more than 40 µM.

As to `Cc1cccc2c(C(=O)NCCCNCCCCCCCCCCNCCCNC(=O)c3c[nH]c4c(C)cccc34)c[nH]c12` [Compound 18e], the “MIC Kp” value is listed as more than 39 µM.

Consider `Cc1cccc2c(C(=O)NCCCNCCCCCCCCCCCCNCCCNC(=O)c3c[nH]c4c(C)cccc34)c[nH]c12.O=C(O)C(F)(F)F.O=C(O)C(F)(F)F` [Compound 18f], for which the “MIC Kp” value is recorded as more than 37 µM.

The test system of the next data set is C. neoformans ATCC 208821. Put plainly: Antifungal MIC (CO-ADD), C. neoformans. The class given is cell-based. The settings on record: Cryptococcus neoformans, ATCC208821, top dose 32 µg/mL. The method in brief: as §1
`Cc1cccc2c(C(=O)NCCCNCCCCCCCCNCCCNC(=O)c3c[nH]c4c(C)cccc34)c[nH]c12` [Compound 18d] had an MIC not above 0.31 µM.

In the case of `Cc1cccc2c(C(=O)NCCCNCCCCCCCCCCNCCCNC(=O)c3c[nH]c4c(C)cccc34)c[nH]c12` [Compound 18e], the MIC is not above 0.3 µM.

Regarding `Cc1cccc2c(C(=O)NCCCNCCCCCCCCCCCCNCCCNC(=O)c3c[nH]c4c(C)cccc34)c[nH]c12.O=C(O)C(F)(F)F.O=C(O)C(F)(F)F` [Compound 18f], the MIC is not above 0.29 µM.

For the next data set, the system named is E. coli ATCC 25922. In words: MIC, broth dilution, E. coli. Type of data set: cell-based, Escherichia coli. Conditions: Escherichia coli, ATCC25922; E. coli ATCC 25922, 18 h.
Turning to `Cc1cccc2c(C(=O)NCCCNCCCCCCCCNCCCNC(=O)c3c[nH]c4c(C)cccc34)c[nH]c12` [Compound 18d], the minimal inhibitory concentration (MIC) is more than 250 µM.

The compound `Cc1cccc2c(C(=O)NCCCNCCCCCCCCCCNCCCNC(=O)c3c[nH]c4c(C)cccc34)c[nH]c12` [Compound 18e] gave an MIC of 30.2 µM (≈ 18.1 µg/mL).

Compound `Cc1cccc2c(C(=O)NCCCNCCCCCCCCCCCCNCCCNC(=O)c3c[nH]c4c(C)cccc34)c[nH]c12.O=C(O)C(F)(F)F.O=C(O)C(F)(F)F` [Compound 18f] gave an MIC of 117 µM.

System in a further data set: not listed separately
In words: Cytotoxicity assay (resazurin). Type of data set: cell-based. The settings on record: human, HEK293 cells, mean n = 2. (In general: The colour change of resazurin is a common sign of viable cells or microbes.)
Regarding `Cc1cccc2c(C(=O)NCCCNCCCCCCCCNCCCNC(=O)c3c[nH]c4c(C)cccc34)c[nH]c12` [Compound 18d], the IC50 (as a rule, the concentration that gives 50% inhibition) at 20 h is more than 40 µM.

Take `Cc1cccc2c(C(=O)NCCCNCCCCCCCCCCNCCCNC(=O)c3c[nH]c4c(C)cccc34)c[nH]c12` [Compound 18e]: the IC50 at 20 h is more than 39 µM.

Compound `Cc1cccc2c(C(=O)NCCCNCCCCCCCCCCCCNCCCNC(=O)c3c[nH]c4c(C)cccc34)c[nH]c12.O=C(O)C(F)(F)F.O=C(O)C(F)(F)F` [Compound 18f] came in with an IC50 at 20 h of more than 37 µM.

Another data set relates to S. aureus ATCC 25923. Put plainly: MIC, broth dilution, S. aureus. The class given is cell-based, Staphylococcus aureus. Conditions: Staphylococcus aureus, ATCC25923; S. aureus ATCC 25923, 18 h; read-out: MIC Sa.
As to `Cc1cccc2c(C(=O)NCCCNCCCCCCCCNCCCNC(=O)c3c[nH]c4c(C)cccc34)c[nH]c12` [Compound 18d], the MIC was more than 250 µM.

With `Cc1cccc2c(C(=O)NCCCNCCCCCCCCCCNCCCNC(=O)c3c[nH]c4c(C)cccc34)c[nH]c12` [Compound 18e], the MIC came out at 30.2 µM (≈ 18.1 µg/mL).

With `Cc1cccc2c(C(=O)NCCCNCCCCCCCCCCCCNCCCNC(=O)c3c[nH]c4c(C)cccc34)c[nH]c12.O=C(O)C(F)(F)F.O=C(O)C(F)(F)F` [Compound 18f], the MIC amounted to 117 µM.

The test system of the next data set is P. aeruginosa ATCC 27853. In words: Doxycycline potentiation against P. aeruginosa. Type of data set: cell-based, Pseudomonas aeruginosa. Conditions: doxycycline at 2 µg/mL (4.5 µM), P. aeruginosa ATCC 27853. From the text: (§2) These measurements were independently repeated in triplicate.
On to `Cc1cccc2c(C(=O)NCCCNCCCCCCCCNCCCNC(=O)c3c[nH]c4c(C)cccc34)c[nH]c12` [Compound 18d], for which the “Dox/Pa fold-change (intrinsic MIC / combination MIC)” value is recorded as 8 fold.

As for `Cc1cccc2c(C(=O)NCCCNCCCCCCCCCCNCCCNC(=O)c3c[nH]c4c(C)cccc34)c[nH]c12` [Compound 18e], the “Dox/Pa fold-change (intrinsic MIC / combination MIC)” value is 4 fold.

With `Cc1cccc2c(C(=O)NCCCNCCCCCCCCCCCCNCCCNC(=O)c3c[nH]c4c(C)cccc34)c[nH]c12.O=C(O)C(F)(F)F.O=C(O)C(F)(F)F` [Compound 18f], the “Dox/Pa fold-change (intrinsic MIC / combination MIC)” value is on record as 4 fold.

The same data set, now with this note: doxycycline at 2 µg/mL (4.5 µM), P. aeruginosa ATCC 27853, mean n = 3.
Take `Cc1cccc2c(C(=O)NCCCNCCCCCCCCNCCCNC(=O)c3c[nH]c4c(C)cccc34)c[nH]c12` [Compound 18d]: the “Dox/Pa: concentration required to restore doxycycline activity (combination MIC)” value (“Dox/Pa: concentration required” below) is recorded as 31.2 µM.

Turning to `Cc1cccc2c(C(=O)NCCCNCCCCCCCCCCNCCCNC(=O)c3c[nH]c4c(C)cccc34)c[nH]c12` [Compound 18e], the “Dox/Pa: concentration required” value came to 15.1 µM.

`Cc1cccc2c(C(=O)NCCCNCCCCCCCCCCCCNCCCNC(=O)c3c[nH]c4c(C)cccc34)c[nH]c12.O=C(O)C(F)(F)F.O=C(O)C(F)(F)F` [Compound 18f]: the “Dox/Pa: concentration required” value is reported as 29.2 µM.

For another data set, the system named is A. baumannii ATCC 19606. In words: MIC, broth microdilution (CO-ADD), A. baumannii. The class given is cell-based, Acinetobacter baumannii. The settings on record: Acinetobacter baumannii, ATCC19606, top dose 32 µg/mL.
`Cc1cccc2c(C(=O)NCCCNCCCCCCCCNCCCNC(=O)c3c[nH]c4c(C)cccc34)c[nH]c12` [Compound 18d]: the MIC is more than 40 µM.

The compound `Cc1cccc2c(C(=O)NCCCNCCCCCCCCCCNCCCNC(=O)c3c[nH]c4c(C)cccc34)c[nH]c12` [Compound 18e] had an MIC of more than 39 µM.

`Cc1cccc2c(C(=O)NCCCNCCCCCCCCCCCCNCCCNC(=O)c3c[nH]c4c(C)cccc34)c[nH]c12.O=C(O)C(F)(F)F.O=C(O)C(F)(F)F` [Compound 18f] showed a minimum inhibitory concentration (MIC) of 9.33 µM.

The test system of the next data set is E. coli ATCC 25922. In words: Erythromycin potentiation against E. coli. Type of data set: cell-based, Escherichia coli. Conditions: erythromycin at 2 µg/mL (2.7 µM), E. coli.
Source text: as §2
With `Cc1cccc2c(C(=O)NCCCNCCCCCCCCNCCCNC(=O)c3c[nH]c4c(C)cccc34)c[nH]c12` [Compound 18d], the “Erythro/Ec fold-change (intrinsic MIC / combination MIC)” value amounted to 1 fold.

In the case of `Cc1cccc2c(C(=O)NCCCNCCCCCCCCCCNCCCNC(=O)c3c[nH]c4c(C)cccc34)c[nH]c12` [Compound 18e], the “Erythro/Ec fold-change (intrinsic MIC / combination MIC)” value is listed as 2 fold.

On to `Cc1cccc2c(C(=O)NCCCNCCCCCCCCCCCCNCCCNC(=O)c3c[nH]c4c(C)cccc34)c[nH]c12.O=C(O)C(F)(F)F.O=C(O)C(F)(F)F` [Compound 18f], for which the “Erythro/Ec fold-change (intrinsic MIC / combination MIC)” value is reported as 1 fold.

The data set is the same for the next values; noted with them: erythromycin at 2 µg/mL (2.7 µM), mean n = 3.
`Cc1cccc2c(C(=O)NCCCNCCCCCCCCNCCCNC(=O)c3c[nH]c4c(C)cccc34)c[nH]c12` [Compound 18d]: the “Erythro/Ec: concentration required to restore erythromycin activity (combination MIC)” value (from here on “Erythro/Ec: concentration required”) is on record as 250 µM.

`Cc1cccc2c(C(=O)NCCCNCCCCCCCCCCNCCCNC(=O)c3c[nH]c4c(C)cccc34)c[nH]c12` [Compound 18e]: the “Erythro/Ec: concentration required” value came out at 15.1 µM.

With `Cc1cccc2c(C(=O)NCCCNCCCCCCCCCCCCNCCCNC(=O)c3c[nH]c4c(C)cccc34)c[nH]c12.O=C(O)C(F)(F)F.O=C(O)C(F)(F)F` [Compound 18f], the “Erythro/Ec: concentration required” value was 116.7 µM.

The subject of the next data set is MRSA ATCC 43300. In words: MIC, broth microdilution (CO-ADD), MRSA. Type of data set: cell-based, methicillin-resistant S. aureus. Conditions: Staphylococcus aureus; MRSA ATCC 43300; top dose 32 µg/mL; read-out: MIC MRSA.
`Cc1cccc2c(C(=O)NCCCNCCCCCCCCNCCCNC(=O)c3c[nH]c4c(C)cccc34)c[nH]c12` [Compound 18d]: the MIC was not above 0.31 µM.

Turning to `Cc1cccc2c(C(=O)NCCCNCCCCCCCCCCNCCCNC(=O)c3c[nH]c4c(C)cccc34)c[nH]c12` [Compound 18e], the MIC was not above 0.3 µM.

As to `Cc1cccc2c(C(=O)NCCCNCCCCCCCCCCCCNCCCNC(=O)c3c[nH]c4c(C)cccc34)c[nH]c12.O=C(O)C(F)(F)F.O=C(O)C(F)(F)F` [Compound 18f], the minimal inhibitory concentration (MIC) is not above 0.29 µM.

For a further data set, the system named is P. aeruginosa ATCC 27853. Put plainly: MIC, broth dilution, P. aeruginosa. Type of data set: cell-based, Pseudomonas aeruginosa. Conditions: Pseudomonas aeruginosa, ATCC27853; P. aeruginosa ATCC 27853, 18 h; read-out: MIC Pa.
Take `Cc1cccc2c(C(=O)NCCCNCCCCCCCCNCCCNC(=O)c3c[nH]c4c(C)cccc34)c[nH]c12` [Compound 18d]: the MIC was determined as 250 µM (≈ 143 µg/mL).

`Cc1cccc2c(C(=O)NCCCNCCCCCCCCCCNCCCNC(=O)c3c[nH]c4c(C)cccc34)c[nH]c12` [Compound 18e]: the MIC is 60.3 µM (≈ 36.2 µg/mL).

As for `Cc1cccc2c(C(=O)NCCCNCCCCCCCCCCCCNCCCNC(=O)c3c[nH]c4c(C)cccc34)c[nH]c12.O=C(O)C(F)(F)F.O=C(O)C(F)(F)F` [Compound 18f], the minimum inhibitory concentration (MIC) came to 117 µM.
